Measured values as given in patent US11566057B2, “Long-acting co-agonists of the glucagon and GLP-1 receptors” (Merck Sharp & Dohme Corp., priority 2017, dated 2023).
Read-outs that look alike come from different tables or passages of the source. Numbered stars: 1 amine (or outer) side, 2 acyl side, 3 side chain; on linkers, the order of the positions; unused ones are H or OH. Square brackets hold non-standard residues; d marks the D form. Side chains are listed from the residue outwards. Peptide text beside a SMILES is read from it. * marks the point of attachment. Phe(4-CH2NH2) = NCc1ccc(C[C@H](N)C(=O)O)cc1; C18 diacid = O=C(O)CCCCCCCCCCCCCCCCC(=O)*; C16 diacid = O=C(O)CCCCCCCCCCCCCCC(=O)*; γGlu = O=C(O)[C@H](CCC(=O)[*:2])N[*:1]; Met(O2) = CS(=O)(=O)CC[C@H](N)C(=O)O; αMeD = C[C@](N)(CC(=O)O)C(=O)O; αMeS = C[C@](N)(CO)C(=O)O; AEEA = NCCOCCOCC(=O)O; Aib = CC(C)(N)C(=O)O

Columns and labels:
human GCGR = target: T1, human GCGR (Homo sapiens, UniProt P47871); experiment: cAMP activity assay at the Glucagon receptor (GCGR); assay type: cell-based; conditions: for hGCGR/hGLP1R (hTone): ratio of GCGR EC50 to GLP1R EC50
T1 construct: expressed in transfected cells; growth medium holds Blasticidin and Hygromycin
Outline: (§1)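 Peptides serially diluted from DMSO (10 points) and added to frozen-stock cells bearing human GLP1R (10,000 cells/well) or GCGR (30,000 cells/well), 1 h at RT, dark. EC50 by four-parameter logistic fit of HitHunter cAMPXS luminescence, read following overnight RT incubation.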

human GLP1R = target: T2, human GLP1R (Homo sapiens, UniProt P43220); experiment: cAMP activity assay at the GLP-1 receptor (GLP1R); assay type: cell-based
T2 construct: expressed in transfected cells; growth medium holds Blasticidin and Hygromycin
Outline: as §1

[1] = summary statement: EC50 at each of the glucagon and GLP-1 receptors, read-out: EC50 at the glucagon receptor
[2] = cells expressing human GLP1R, cAMP production, buffer with or without 20% human serum (not stated which), read-out: GLP1R EC50 human
[3] = summary statement: EC50 at each of the glucagon and GLP-1 receptors, read-out: EC50 at the GLP-1 receptor

T1 sequence (P47871 26-477): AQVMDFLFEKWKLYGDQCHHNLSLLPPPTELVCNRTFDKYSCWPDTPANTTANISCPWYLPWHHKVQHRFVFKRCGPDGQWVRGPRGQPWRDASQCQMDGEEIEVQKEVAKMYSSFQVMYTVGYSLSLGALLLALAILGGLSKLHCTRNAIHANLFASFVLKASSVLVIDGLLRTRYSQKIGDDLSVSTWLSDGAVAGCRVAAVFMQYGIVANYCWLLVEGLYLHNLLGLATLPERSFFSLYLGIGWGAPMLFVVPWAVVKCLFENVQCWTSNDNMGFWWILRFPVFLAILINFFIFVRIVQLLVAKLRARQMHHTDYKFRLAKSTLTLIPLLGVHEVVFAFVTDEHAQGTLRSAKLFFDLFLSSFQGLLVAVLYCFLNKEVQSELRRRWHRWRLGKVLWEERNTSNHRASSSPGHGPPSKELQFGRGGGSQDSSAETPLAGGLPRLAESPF
T2 sequence (P43220 24-463): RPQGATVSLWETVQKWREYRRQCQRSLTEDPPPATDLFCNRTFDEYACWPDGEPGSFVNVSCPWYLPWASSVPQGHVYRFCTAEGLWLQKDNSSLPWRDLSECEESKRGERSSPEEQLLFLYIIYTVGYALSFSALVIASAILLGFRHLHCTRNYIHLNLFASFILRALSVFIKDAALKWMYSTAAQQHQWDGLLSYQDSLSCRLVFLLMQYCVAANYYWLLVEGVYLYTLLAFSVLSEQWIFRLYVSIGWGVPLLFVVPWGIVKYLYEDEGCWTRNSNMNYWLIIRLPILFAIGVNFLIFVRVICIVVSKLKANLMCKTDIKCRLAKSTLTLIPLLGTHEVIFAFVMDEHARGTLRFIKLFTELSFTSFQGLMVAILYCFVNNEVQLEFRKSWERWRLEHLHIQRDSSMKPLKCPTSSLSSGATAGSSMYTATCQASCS

| hGCGR/hGLP1R (hTone) (human GCGR) | EC50 (human GCGR; [1]) [nM] | EC50 (human GLP1R; [2]) [nM] | EC50 (human GLP1R; [3]) [nM] | EC50 (human GCGR; cells expressing human GCGR, cAMP production, buffer with or without 20% human serum (not stated which), read-out: GCGR EC50 human) [nM] | Structure (SMILES) |
| --- | --- | --- | --- | --- | --- |
| 0.2 | < 5 | 0.52 | < 5 | – | CC(C)C[C@H](NC(=O)[C@H](Cc1ccc(O)cc1)NC(=O)[C@H](CCCCN)NC(=O)[C@H](CO)NC(=O)[C@H](Cc1ccc(O)cc1)NC(=O)[C@H](CC(=O)O)NC(=O)[C@H](CO)NC(=O)[C@@H](NC(=O)[C@H](Cc1ccccc1)NC(=O)[C@@H](NC(=O)CNC(=O)[C@H](CCC(N)=O)NC(=O)C(C)(C)NC(=O)[C@@H](N)Cc1c[nH]cn1)[C@@H](C)O)[C@@H](C)O)C(=O)N[C@@H](CC(=O)O)C(=O)N[C@@H](C)C(=O)N[C@@H](CCCNC(=N)N)C(=O)N[C@@H](C)C(=O)N[C@@H](C)C(=O)N[C@@H](Cc1ccc(CNC(=O)COCCOCCNC(=O)COCCOCCNC(=O)CC[C@H](NC(=O)CCCCCCCCCCCCCCCCC(=O)O)C(=O)O)cc1)C(=O)N[C@@H](CC(=O)O)C(=O)N[C@@H](Cc1ccccc1)C(=O)N[C@H](C(=O)N[C@@H](CCC(N)=O)C(=O)N[C@@H](Cc1c[nH]c2ccccc12)C(=O)N[C@@H](CC(C)C)C(=O)N[C@@H](CCS(C)(=O)=O)C(=O)N[C@@](C)(CC(=O)O)C(=O)N[C@H](C(N)=O)[C@@H](C)O)C(C)C [TP636] (H-H[Aib]QGTFTSDYSKYLDARAA[Phe(4-CH2NH2)]([AEEA-AEEA-γGlu-C18 diacid])DFVQWL[Met(O2)][αMeD]T-NH2; N-terminus assumed) |
| 1.6 | < 5 | – | < 5 | – | CC(C)C[C@H](NC(=O)[C@H](Cc1ccc(O)cc1)NC(=O)[C@H](CCCCN)NC(=O)[C@H](CO)NC(=O)[C@H](Cc1ccc(O)cc1)NC(=O)[C@H](CC(=O)O)NC(=O)[C@H](CO)NC(=O)[C@@H](NC(=O)[C@H](Cc1ccccc1)NC(=O)[C@@H](NC(=O)CNC(=O)[C@H](CCC(N)=O)NC(=O)C(C)(C)NC(=O)[C@@H](N)Cc1c[nH]cn1)[C@@H](C)O)[C@@H](C)O)C(=O)N[C@@H](CC(=O)O)C(=O)N[C@@H](C)C(=O)N[C@@H](CCCNC(=N)N)C(=O)N[C@@H](C)C(=O)N[C@@H](C)C(=O)N[C@@H](CCC(N)=O)C(=O)N[C@@H](CCCCNC(=O)COCCOCCNC(=O)COCCOCCNC(=O)CC[C@H](NC(=O)CCCCCCCCCCCCCCC(=O)O)C(=O)O)C(=O)N[C@@H](Cc1ccccc1)C(=O)N[C@H](C(=O)N[C@@H](CCC(N)=O)C(=O)N[C@@H](Cc1c[nH]c2ccccc12)C(=O)N[C@@H](CC(C)C)C(=O)N[C@@H](CCS(C)(=O)=O)C(=O)N[C@@H](CCC(=O)N[C@H](C(N)=O)[C@@H](C)O)C(=O)O)C(C)C [TP827] (H-H[Aib]QGTFTSDYSKYLDARAAQK([AEEA-AEEA-γGlu-C16 diacid])FVQWL[Met(O2)][γGlu]T-NH2) |
| 1.1 | < 5 | – | < 5 | – | CC(C)C[C@H](NC(=O)[C@H](Cc1ccc(O)cc1)NC(=O)[C@H](CCCCN)NC(=O)[C@H](CO)NC(=O)[C@H](Cc1ccc(CNC(=O)COCCOCCNC(=O)COCCOCCNC(=O)CC[C@H](NC(=O)CCCCCCCCCCCCCCCCC(=O)O)C(=O)O)cc1)NC(=O)[C@H](CC(=O)O)NC(=O)[C@H](CO)NC(=O)[C@@H](NC(=O)[C@H](Cc1ccccc1)NC(=O)[C@@H](NC(=O)CNC(=O)[C@H](CCC(N)=O)NC(=O)C(C)(C)NC(=O)[C@@H](N)Cc1c[nH]cn1)[C@@H](C)O)[C@@H](C)O)C(=O)N[C@@H](CC(=O)O)C(=O)N[C@@H](C)C(=O)N[C@@H](CCCNC(=N)N)C(=O)N[C@@H](C)C(=O)N[C@@H](C)C(=O)N[C@@H](CCC(N)=O)C(=O)N[C@@H](CC(=O)O)C(=O)N[C@@H](Cc1ccccc1)C(=O)N[C@H](C(=O)N[C@@H](CCC(N)=O)C(=O)N[C@@H](Cc1c[nH]c2ccccc12)C(=O)N[C@@H](CC(C)C)C(=O)N[C@@H](CCS(C)(=O)=O)C(=O)N[C@@](C)(CC(=O)O)C(=O)N[C@H](C(N)=O)[C@@H](C)O)C(C)C [TP624] (H-H[Aib]QGTFTSD[Phe(4-CH2NH2)]([AEEA-AEEA-γGlu-C18 diacid])SKYLDARAAQDFVQWL[Met(O2)][αMeD]T-NH2; N-terminus assumed) |
| 0.7 | < 5 | 0.18 | < 5 | – | CC(C)C[C@H](NC(=O)[C@H](Cc1ccc(O)cc1)NC(=O)[C@H](CCCCN)NC(=O)[C@H](CO)NC(=O)[C@H](Cc1ccc(O)cc1)NC(=O)[C@H](CC(=O)O)NC(=O)[C@H](CO)NC(=O)[C@@H](NC(=O)[C@H](Cc1ccccc1)NC(=O)[C@@H](NC(=O)CNC(=O)[C@H](CCC(N)=O)NC(=O)C(C)(C)NC(=O)[C@@H](N)Cc1c[nH]cn1)[C@@H](C)O)[C@@H](C)O)C(=O)N[C@@H](CC(=O)O)C(=O)N[C@@H](C)C(=O)N[C@@H](CCCNC(=N)N)C(=O)N[C@@H](C)C(=O)N[C@@H](C)C(=O)N[C@@H](CCC(N)=O)C(=O)N[C@@H](Cc1ccc(CNC(=O)COCCOCCNC(=O)COCCOCCNC(=O)COCCOCCNC(=O)CC[C@H](NC(=O)CCCCCCCCCCCCCCCCC(=O)O)C(=O)O)cc1)C(=O)N[C@@H](Cc1ccccc1)C(=O)N[C@H](C(=O)N[C@@H](CCC(N)=O)C(=O)N[C@@H](Cc1c[nH]c2ccccc12)C(=O)N[C@@H](CC(C)C)C(=O)N[C@@H](CC(C)C)C(=O)N[C@@H](CC(=O)O)C(=O)N[C@H](C(N)=O)[C@@H](C)O)C(C)C [TP679] (H-H[Aib]QGTFTSDYSKYLDARAAQ[Phe(4-CH2NH2)]([AEEA-AEEA-AEEA-γGlu-C18 diacid])FVQWLLDT-NH2; N-terminus assumed) |
| 0.1 | < 5 | 0.38 | < 5 | – | CC(C)C[C@H](NC(=O)[C@H](Cc1ccc(O)cc1)NC(=O)[C@H](CCCCN)NC(=O)[C@H](CO)NC(=O)[C@H](Cc1ccc(O)cc1)NC(=O)[C@H](CC(=O)O)NC(=O)[C@H](CO)NC(=O)[C@@H](NC(=O)[C@H](Cc1ccccc1)NC(=O)[C@@H](NC(=O)CNC(=O)[C@H](CCC(N)=O)NC(=O)[C@](C)(CO)NC(=O)[C@@H](N)Cc1c[nH]cn1)[C@@H](C)O)[C@@H](C)O)C(=O)N[C@@H](CC(=O)O)C(=O)NC(C)(C)C(=O)N[C@@H](CCCNC(=N)N)C(=O)N[C@@H](C)C(=O)N[C@@H](C)C(=O)N[C@@H](CCC(N)=O)C(=O)N[C@@H](CCCCNC(=O)COCCOCCNC(=O)COCCOCCNC(=O)CC[C@H](NC(=O)CCCCCCCCCCCCCCC(=O)O)C(=O)O)C(=O)N[C@@H](Cc1ccccc1)C(=O)N[C@H](C(=O)N[C@@H](CCC(N)=O)C(=O)N[C@@H](Cc1c[nH]c2ccccc12)C(=O)N[C@@H](CC(C)C)C(=O)N[C@@H](CCS(C)(=O)=O)C(=O)N[C@@](C)(CC(=O)O)C(=O)N[C@H](C(N)=O)[C@@H](C)O)C(C)C [TP619] (H-H[αMeS]QGTFTSDYSKYLD[Aib]RAAQK([AEEA-AEEA-γGlu-C16 diacid])FVQWL[Met(O2)][αMeD]T-NH2) |
| 0.7 | < 5 | 0.19 | < 5 | – | CC(C)C[C@H](NC(=O)[C@H](Cc1ccc(O)cc1)NC(=O)[C@H](CCCCN)NC(=O)[C@H](CO)NC(=O)[C@H](Cc1ccc(O)cc1)NC(=O)[C@H](CC(=O)O)NC(=O)[C@H](CO)NC(=O)[C@@H](NC(=O)[C@H](Cc1ccccc1)NC(=O)[C@@H](NC(=O)CNC(=O)[C@H](CCC(N)=O)NC(=O)C(C)(C)NC(=O)[C@@H](N)Cc1c[nH]cn1)[C@@H](C)O)[C@@H](C)O)C(=O)N[C@@H](CC(=O)O)C(=O)N[C@@H](C)C(=O)N[C@@H](CCCNC(=N)N)C(=O)N[C@@H](C)C(=O)N[C@@H](C)C(=O)N[C@@H](CCC(N)=O)C(=O)N[C@@H](Cc1ccc(CNC(=O)COCCOCCNC(=O)CC[C@H](NC(=O)CCCCCCCCCCCCCCCCC(=O)O)C(=O)O)cc1)C(=O)N[C@@H](Cc1ccccc1)C(=O)N[C@H](C(=O)N[C@@H](CCC(N)=O)C(=O)N[C@@H](Cc1c[nH]c2ccccc12)C(=O)N[C@@H](CC(C)C)C(=O)N[C@@H](CC(C)C)C(=O)N[C@@H](CC(=O)O)C(=O)N[C@H](C(N)=O)[C@@H](C)O)C(C)C [TP633] (H-H[Aib]QGTFTSDYSKYLDARAAQ[Phe(4-CH2NH2)]([AEEA-γGlu-C18 diacid])FVQWLLDT-NH2; N-terminus assumed) |
| – | – | > 19.8 | – | > 19.8 | CC(C)C[C@H](NC(=O)[C@H](CCCCN)NC(=O)[C@H](CCCCN)NC(=O)[C@H](CO)NC(=O)[C@H](Cc1ccc(O)cc1)NC(=O)[C@H](CCC(=O)O)NC(=O)[C@H](CO)NC(=O)[C@@H](NC(=O)[C@H](Cc1ccccc1)NC(=O)[C@@H](NC(=O)CNC(=O)[C@H](CCC(N)=O)NC(=O)C(C)(C)NC(=O)[C@@H](N)Cc1c[nH]cn1)[C@@H](C)O)[C@@H](C)O)C(=O)N[C@@H](CC(=O)O)C(=O)N[C@@H](C)C(=O)N[C@@H](CCCNC(=N)N)C(=O)N[C@@H](C)C(=O)N[C@@H](C)C(=O)N[C@@H](CCCCNC(=O)COCCOCCNC(=O)COCCOCCNC(=O)CC[C@H](NC(=O)CCCCCCCCCCCCCCCCC(=O)O)C(=O)O)C(=O)N[C@@H](CC(=O)O)C(=O)N[C@@H](Cc1ccccc1)C(=O)N[C@H](C(=O)N[C@@H](CCC(N)=O)C(=O)N[C@@H](Cc1c[nH]c2ccccc12)C(=O)N[C@@H](CC(C)C)C(=O)N[C@@H](CCS(C)(=O)=O)C(=O)N[C@@H](CC(=O)O)C(=O)N[C@H](C(N)=O)[C@@H](C)O)C(C)C [TP703] (H-H[Aib]QGTFTSEYSKKLDARAAK([AEEA-AEEA-γGlu-C18 diacid])DFVQWL[Met(O2)]DT-NH2) |
